Drawing on publication PMC8162404, “Proteomimetic surface fragments distinguish targets by function” (Chemical Science, 2020), this text covers Kd for 13 compounds.

Holding throughout (assay): Pull-down assay with immobilized protein and LSM libraries
For one assay, the target named is T1, CaM (Bos taurus, UniProt P62157).
T1 construct: made in house; host or cells: E. coli BL21 (DE3)
The assay is classed as binding, bovine. The note with it: H12 library; 1:2 stoichiometry assumed; read-out: Surface mapping KD (apparent). In short, it runs like this:
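His-tagged protein immobilized on Co-NTA resin, equilibrated 30 min at room temperature with LSM sublibraries (64 members, […]), equimolar protein to total probe. CaM buffer: 20 mM HEPES pH 7.4, 150 mM NaCl, 5 mM CaCl2. Bound fractions from HPLC-MS loss of unbound probe versus protein-free resin control; Kd derived.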

A further assay addresses T2, Gal-1 (Homo sapiens, UniProt P09382).
T2 construct: made in house; host or cells: E. coli BL21(DE3)
The assay is classed as binding. The note with it: H12 library; 1:1 binding assumed; read-out: Surface mapping KD (apparent). Summed up:
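His-tagged protein immobilized on Co-NTA resin (64 µM) in 20 mM HEPES pH 7.4, 150 mM NaCl, equilibrated 30 min at room temperature with foldamer LSM sublibraries at equimolar total concentration. Unbound fractions quantified by HPLC-MS versus protein-free resin control; apparent KD assumes 1:1 binding.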

In a further assay the target is T3, S100A4 (Homo sapiens, UniProt P26447).
T3 construct: made in house; host or cells: Escherichia coli BL21(DE3)
T3 sequence (P26447 whole entry): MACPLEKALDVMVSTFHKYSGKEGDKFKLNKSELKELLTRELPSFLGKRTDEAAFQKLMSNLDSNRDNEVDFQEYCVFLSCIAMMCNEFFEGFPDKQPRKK
The assay is classed as binding. The note with it: H12 library; 1:1 binding assumed; read-out: Surface mapping KD (apparent). Summed up: (§1)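 Buffers were HEPES pH 7.4 with 150 mM NaCl, plus 1 mM TCEP and 1 mM CaCl2 (50 mM HEPES) for S100A4 and S100B, 1 mM TCEP for Gal-1, and no additive for RecQ-WH. Immobilized protein at 64 µM was equilibrated 30 min with the LSM sublibrary, and unbound probes were measured by LC-MS.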

In a further assay the target is T4, S100B (Homo sapiens, UniProt P04271).
T4 construct: made in house; host or cells: Escherichia coli BL21(DE3)
T4 sequence (P04271 1-92): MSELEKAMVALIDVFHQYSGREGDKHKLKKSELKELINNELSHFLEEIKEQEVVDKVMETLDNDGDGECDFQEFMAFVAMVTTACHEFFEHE
The assay is classed as binding. The settings on record: H12 library; 1:1 binding assumed; read-out: Surface mapping KD (apparent). In short, it runs like this: as §1

T2 sequence (P09382 whole entry): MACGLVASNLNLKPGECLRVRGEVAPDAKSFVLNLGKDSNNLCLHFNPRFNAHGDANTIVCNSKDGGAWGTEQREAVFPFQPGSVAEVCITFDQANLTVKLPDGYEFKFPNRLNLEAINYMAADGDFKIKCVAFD

Turning to `NC(=O)[C@H]1CCC[C@@H]1NC(=O)[C@H]1CCC[C@@H]1NC(=O)C[C@H](Cc1c[nH]c2ccccc12)NC(=O)[C@H]1CCC[C@@H]1NC(=O)[C@H]1CCC[C@@H]1NC(=O)C[C@H](Cc1c[nH]c2ccccc12)NC(=O)[C@H]1CCC[C@@H]1NC(=O)[C@H]1CCC[C@@H]1N` [H12 WW], the Kd at CaM stood at 413 µM; on Gal-1, 151 µM; on S100A4 it was 56 µM; at S100B, 8 µM.
`CC(C)C[C@@H](CC(=O)N[C@H]1CCC[C@@H]1C(=O)N[C@H]1CCC[C@@H]1C(N)=O)NC(=O)[C@H]1CCC[C@@H]1NC(=O)[C@H]1CCC[C@@H]1NC(=O)C[C@H](CCCNC(=N)N)NC(=O)[C@H]1CCC[C@@H]1NC(=O)[C@H]1CCC[C@@H]1N` [H12 RL]: the Kd at CaM was 252 µM; at Gal-1 it was 194 µM; at S100A4 it was 245 µM; at S100B it was 56 µM.
In the case of `CC(C)[C@@H](CC(=O)N[C@H]1CCC[C@@H]1C(=O)N[C@H]1CCC[C@@H]1C(=O)N[C@H](CC(=O)N[C@H]1CCC[C@@H]1C(=O)N[C@H]1CCC[C@@H]1C(N)=O)Cc1c[nH]c2ccccc12)NC(=O)[C@H]1CCC[C@@H]1NC(=O)[C@H]1CCC[C@@H]1N` [H12 VW], the Kd at CaM worked out at 56 µM; on Gal-1 it was 346 µM; on S100A4, 184 µM; at S100B, 31 µM.
Consider `CSCC[C@@H](CC(=O)N[C@H]1CCC[C@@H]1C(=O)N[C@H]1CCC[C@@H]1C(N)=O)NC(=O)[C@H]1CCC[C@@H]1NC(=O)[C@H]1CCC[C@@H]1NC(=O)C[C@H](CCCNC(=N)N)NC(=O)[C@H]1CCC[C@@H]1NC(=O)[C@H]1CCC[C@@H]1N` [H12 RM], for which the Kd on CaM was determined as 464 µM; on Gal-1, 201 µM; at S100A4, 335 µM; at S100B it was 96 µM.
For the compound `CC(C)C[C@@H](CC(=O)N[C@H]1CCC[C@@H]1C(=O)N[C@H]1CCC[C@@H]1C(N)=O)NC(=O)[C@H]1CCC[C@@H]1NC(=O)[C@H]1CCC[C@@H]1NC(=O)C[C@H](CCCCN)NC(=O)[C@H]1CCC[C@@H]1NC(=O)[C@H]1CCC[C@@H]1N` [H12 KL], the Kd on CaM was 324 µM; on Gal-1 it was 316 µM; on S100A4 it was 89 µM; at S100B it was 68 µM.
Taken in the same sequence, the figures for `N=C(N)NCCC[C@@H](CC(=O)N[C@H]1CCC[C@@H]1C(=O)N[C@H]1CCC[C@@H]1C(N)=O)NC(=O)[C@H]1CCC[C@@H]1NC(=O)[C@H]1CCC[C@@H]1NC(=O)C[C@H](CCCNC(=N)N)NC(=O)[C@H]1CCC[C@@H]1NC(=O)[C@H]1CCC[C@@H]1N` [H12 RR] were 123 µM, 181 µM, 210 µM and 89 µM.
Taken in the same sequence, the figures for `CC[C@H](C)[C@@H](CC(=O)N[C@H]1CCC[C@@H]1C(=O)N[C@H]1CCC[C@@H]1C(N)=O)NC(=O)[C@H]1CCC[C@@H]1NC(=O)[C@H]1CCC[C@@H]1NC(=O)C[C@@H](NC(=O)[C@H]1CCC[C@@H]1NC(=O)[C@H]1CCC[C@@H]1N)[C@@H](C)CC` [H12 II] were 67 µM, 395 µM, 79 µM and 25 µM.
Taken in the same sequence, the figures for `NCCCC[C@@H](CC(=O)N[C@H]1CCC[C@@H]1C(=O)N[C@H]1CCC[C@@H]1C(=O)N[C@H](CC(=O)N[C@H]1CCC[C@@H]1C(=O)N[C@H]1CCC[C@@H]1C(N)=O)Cc1c[nH]c2ccccc12)NC(=O)[C@H]1CCC[C@@H]1NC(=O)[C@H]1CCC[C@@H]1N` [H12 KW] were 51 µM, 161 µM, 456 µM and 39 µM.
As to `CC(C)C[C@@H](CC(=O)N[C@H]1CCC[C@@H]1C(=O)N[C@H]1CCC[C@@H]1C(=O)N[C@@H](CCCNC(=N)N)CC(=O)N[C@H]1CCC[C@@H]1C(=O)N[C@H]1CCC[C@@H]1C(N)=O)NC(=O)[C@H]1CCC[C@@H]1NC(=O)[C@H]1CCC[C@@H]1N` [H12 LR], the Kd at CaM was 236 µM; at Gal-1 it was 120 µM; on S100A4 it was 345 µM; at S100B it was 29 µM.
In the case of `CC(C)[C@@H](CC(=O)N[C@H]1CCC[C@@H]1C(=O)N[C@H]1CCC[C@@H]1C(=O)N[C@H](CC(=O)N[C@H]1CCC[C@@H]1C(=O)N[C@H]1CCC[C@@H]1C(N)=O)Cc1ccccc1)NC(=O)[C@H]1CCC[C@@H]1NC(=O)[C@H]1CCC[C@@H]1N` [H12 VF], the Kd is 128 µM on CaM, 388 µM on Gal-1, 95 µM at S100A4 and 45 µM at S100B.
As for `CC(C)C[C@@H](CC(=O)N[C@H]1CCC[C@@H]1C(=O)N[C@H]1CCC[C@@H]1C(=O)N[C@H](CC(=O)N[C@H]1CCC[C@@H]1C(=O)N[C@H]1CCC[C@@H]1C(N)=O)Cc1ccc(O)cc1)NC(=O)[C@H]1CCC[C@@H]1NC(=O)[C@H]1CCC[C@@H]1N` [H12 LY], the Kd was 28 µM at CaM, 347 µM at Gal-1, 100 µM at S100A4 and 56 µM at S100B.
As to `CC(C)C[C@@H](CC(=O)N[C@H]1CCC[C@@H]1C(=O)N[C@H]1CCC[C@@H]1C(=O)N[C@H](CC(=O)N[C@H]1CCC[C@@H]1C(=O)N[C@H]1CCC[C@@H]1C(N)=O)Cc1ccccc1)NC(=O)[C@H]1CCC[C@@H]1NC(=O)[C@H]1CCC[C@@H]1N` [H12 LF], the Kd at CaM came out at 28 µM; on Gal-1, 376 µM; at S100A4, 32 µM; at S100B it was 22 µM.
The like results for `CC[C@H](C)[C@@H](CC(=O)N[C@H]1CCC[C@@H]1C(=O)N[C@H]1CCC[C@@H]1C(=O)N[C@@H](CCSC)CC(=O)N[C@H]1CCC[C@@H]1C(=O)N[C@H]1CCC[C@@H]1C(N)=O)NC(=O)[C@H]1CCC[C@@H]1NC(=O)[C@H]1CCC[C@@H]1N` [H12 IM] were, in that order, 211 µM, 378 µM, 381 µM and 74 µM.
